In PubChem BioAssay (NCI):
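Where inhibition never reached the appropriate level, the endpoint shown equals the highest concentration tested. Otherwise, values were interpolated linearly from a five-concentration, 48-hour dose response in 96-well plates. At the GI50, growth is halved. Definition used: TGI = concentration required for complete inhibition of growth.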

Tests used:
Test in all cases: NCI-60 cell line screen, 48 h
[1] = system: OVCAR-8 ovarian
[2] = system: HCC-2998 colon
[3] = system: EKVX NSCLC
[4] = system: MALME-3M melanoma
[5] = system: CCRF-CEM leukemia
[6] = system: A549 NSCLC
[7] = system: KM12 colon
[8] = system: HOP-92 NSCLC
[9] = system: HCT-15 colon
[10] = system: SF-295 CNS
[11] = system: 786-0 renal
[12] = system: UACC-257 melanoma
[13] = system: T-47D breast
[14] = system: HOP-62 NSCLC
[15] = system: HCT-116 colon
[16] = system: NCI-H23 lung
[17] = system: MDA-MB-435
[18] = system: SW-620 colon
[19] = system: RPMI-8226 leukemia
[20] = system: SNB-75 CNS
[21] = system: SNB-19 CNS
[22] = system: CAKI-1 renal
[23] = system: TK-10 renal
[24] = system: M14 melanoma
[25] = system: SK-OV-3 ovarian
[26] = system: NCI-H522 lung
[27] = system: K-562 leukemia
[28] = system: RXF 393 renal
[29] = system: COLO 205 colon
[30] = system: PC-3 prostate
[31] = system: HS 578T breast
[32] = system: UACC-62 melanoma
[33] = system: A498 renal
[34] = system: OVCAR-5 ovarian
[35] = system: BT-549 breast
[36] = system: DU-145 prostate
[37] = system: SF-268 CNS
[38] = system: SK-MEL-5 melanoma
[39] = system: OVCAR-4 ovarian
[40] = system: ACHN renal
[41] = system: LOX IMVI melanoma
[42] = system: HL-60(TB) leukemia
[43] = system: HT29 colon
[44] = system: SF-539 CNS
[45] = system: IGROV1 ovarian
[46] = system: NCI/ADR-RES ovarian
[47] = system: NCI-H460 lung
[48] = system: NCI-H226 lung
[49] = system: MDA-MB-468 breast
[50] = system: OVCAR-3 ovarian
[51] = system: SK-MEL-28 melanoma
[52] = system: U251 CNS
[53] = system: MOLT-4 leukemia
[54] = system: SN12C renal
[55] = system: MCF7 breast
[56] = system: SK-MEL-2 melanoma

O=C(N/N=C/c1ccc(B(O)O)o1)c1[nH]c2ccc(Br)cc2c1-c1ccccc1
GI50 [1]: 17.7 µM | TGI [1]: 41.6 µM | GI50 [2]: 25.4 µM | TGI [2]: 90.2 µM | GI50 [3]: 28.6 µM | TGI [3]: > 100 µM | GI50 [4]: 26.9 µM | TGI [4]: > 100 µM | GI50 [5]: 17.5 µM | TGI [5]: 55.4 µM | GI50 [6]: 27.1 µM | TGI [6]: > 100 µM | GI50 [7]: 19.2 µM | TGI [7]: > 100 µM | GI50 [8]: 11.7 µM | TGI [8]: 52.8 µM | GI50 [9]: 22.6 µM | TGI [9]: > 100 µM | GI50 [10]: 13.1 µM | TGI [10]: 43.1 µM | GI50 [11]: 17.9 µM | TGI [11]: 54.6 µM | GI50 [12]: 19.1 µM | TGI [12]: > 100 µM | GI50 [13]: 21.4 µM | TGI [13]: > 100 µM | GI50 [14]: 11.9 µM | TGI [14]: 36.6 µM | GI50 [15]: 16.9 µM | TGI [15]: > 100 µM | GI50 [16]: 26.5 µM | TGI [16]: > 100 µM | GI50 [17]: 3.66 µM | TGI [17]: > 100 µM | GI50 [18]: 35.7 µM | TGI [18]: > 100 µM | GI50 [19]: 29.5 µM | TGI [19]: > 100 µM | GI50 [20]: 3.26 µM | TGI [20]: 20.6 µM | GI50 [21]: 21.1 µM | TGI [21]: 89.7 µM | GI50 [22]: 30.8 µM | TGI [22]: > 100 µM | GI50 [23]: 37.1 µM | TGI [23]: > 100 µM | GI50 [24]: 19 µM | TGI [24]: > 100 µM | GI50 [25]: 21.8 µM | TGI [25]: 67.3 µM | GI50 [26]: 2940 nM | TGI [26]: 13.5 µM | GI50 [27]: 5.46 µM | TGI [27]: 45 µM | GI50 [28]: 5.38 µM | TGI [28]: 24.1 µM | GI50 [29]: 19.8 µM | TGI [29]: 46.6 µM | GI50 [30]: 12.9 µM | TGI [30]: > 100 µM | GI50 [31]: 8.91 µM | TGI [31]: 93.6 µM | GI50 [32]: 3.24 µM | TGI [32]: 15.5 µM | GI50 [33]: 23.3 µM | TGI [33]: > 100 µM | GI50 [34]: 27.5 µM | TGI [34]: > 100 µM | GI50 [35]: 12 µM | TGI [35]: 33.3 µM | GI50 [36]: 32.3 µM | TGI [36]: > 100 µM | GI50 [37]: 16.1 µM | TGI [37]: > 100 µM | GI50 [38]: 14.7 µM | TGI [38]: 35.5 µM | GI50 [39]: 47 µM | TGI [39]: > 100 µM | GI50 [40]: 29.6 µM | TGI [40]: > 100 µM | GI50 [41]: 18.1 µM | TGI [41]: > 100 µM | GI50 [42]: 13 µM | TGI [42]: 37.1 µM | GI50 [43]: 20.6 µM | TGI [43]: 50.9 µM | GI50 [44]: 13 µM | TGI [44]: 31.3 µM | GI50 [45]: 25.7 µM | TGI [45]: > 100 µM | GI50 [46]: 12.2 µM | TGI [46]: 56.2 µM | GI50 [47]: 29.1 µM | TGI [47]: > 100 µM | GI50 [48]: 45.8 µM | TGI [48]: > 100 µM | GI50 [49]: 19.3 µM | TGI [49]: 57.2 µM | GI50 [50]: 14.8 µM | TGI [50]: > 100 µM | GI50 [51]: 10.7 µM | TGI [51]: > 100 µM | GI50 [52]: 16.5 µM | TGI [52]: 44.4 µM | GI50 [53]: 20.3 µM | TGI [53]: 73.3 µM | GI50 [54]: 24.4 µM | TGI [54]: > 100 µM | GI50 [55]: 24.7 µM | TGI [55]: > 100 µM | GI50 [56]: 13.5 µM | TGI [56]: 43.5 µM
